# ChEMBL document CHEMBL1131771, “Structure-activity relationship analysis of substituted 4-quinolinamines, antagonists of immunostimulatory CpG-oligodeoxynucleotides” (Bioorg Med Chem Lett, 1999)
# Test: Acid dissociation constant was evaluated
# Assay type: ADME
# Conditions: not given
row,pKa,SMILES
1,2.9,CN(C)CCNC(=O)c1cc(-c2ccc3ccccc3c2)nc2ccccc12
2,6.2,CN(C)CCN(C)c1cc(-c2ccc3ccccc3c2)nc2ccccc12
3,6.1,CN(C)CCOc1cc(-c2ccc3ccccc3c2)nc2ccccc12
4,6.9,CN1CCN(Cc2cc(Nc3cc(-c4ccc5ccccc5c4)nc4ccccc34)cc(CN3CCN(C)CC3)c2O)CC1

# Test: Concentration required for half-maximal inhibition of CpG-ODN effect on thymidine uptake by WEHI 231 murine B-cells in the presence of alpha-sIgM.
# Assay type: functional, cell-based
# Conditions: Mus musculus, WEHI231
row,EC50 [µM],SMILES
1,0.0123,Cc1ccc(-c2cc(NCCN(C)C)c3ccccc3n2)cc1
2,0.0115,Cc1ccc(-c2cc(NCCCN(C)C)c3ccccc3n2)cc1
3,0.011,CN(C)CCCNc1cc(-c2ccc3ccccc3c2)nc2ccccc12
4,0.011,CN(C)CCNc1cc(-c2ccc3ccc4ccccc4c3c2)nc2ccccc12
5,0.0251,O=C(CCCO)NCCCN1CCN(CCCNc2cc(-c3ccc4ccccc4c3)nc3ccccc23)CC1
6,0.0012,Oc1c(CN2CCCC2)cc(Nc2cc(-c3ccc4ccccc4c3)nc3ccccc23)cc1CN1CCCC1
7,4.4,CN(C)CCCNc1ccnc2ccccc12
8,1.15,CC(CCCC(C)(C)O)Nc1cc(-c2ccc3ccccc3c2)nc2ccccc12 (stereo not given)
9,2.4,CN(C)CCSc1cc(-c2ccc3ccccc3c2)nc2ccccc12
10,1,CC(Nc1cc(-c2ccc3ccccc3c2)nc2ccccc12)C(O)c1ccccc1 (stereo not given)
11,0.155,CN(C)CCNc1cc(-c2ccc(C(F)(F)F)cc2)nc2ccccc12
12,0.0398,CN(C)CCNc1cc(-c2cccc3ccccc23)nc2ccccc12
13,0.33,OCCOCCNc1cc(-c2ccc3ccccc3c2)nc2ccccc12
14,> 10,CN(C)CCNC(=O)c1cc(-c2ccc3ccccc3c2)nc2ccccc12
15,0.416,CN(C)CCN(C)c1cc(-c2ccc3ccccc3c2)nc2ccccc12
16,0.01,Oc1c(CN2CCOCC2)cc(Nc2cc(-c3ccc4ccccc4c3)nc3ccccc23)cc1CN1CCOCC1

row,EC50 [µM],SMILES
1,0.57,CC(C)(C)OC(=O)NCCNc1cc(-c2ccc3ccccc3c2)nc2ccccc12
2,0.17,OCCCCCCNc1cc(-c2ccc3ccccc3c2)nc2ccccc12
3,0.0091,CN(C)CCNc1cc(-c2ccc3ccccc3c2)nc2ccccc12
4,0.478,CN(C)CCOc1cc(-c2ccc3ccccc3c2)nc2ccccc12
5,0.32,Oc1ccc(Nc2cc(-c3ccc4ccccc4c3)nc3ccccc23)cc1
6,0.51,OCCc1ccc(Nc2cc(-c3ccc4ccccc4c3)nc3ccccc23)cc1
7,0.0513,CCN(CC)CCCC(C)Nc1cc(-c2ccccc2)nc2cc(Cl)ccc12 (stereo not given)
8,0.0065,CN(C)CCNc1cc(/C=C/c2ccccc2)nc2ccccc12
9,0.004,CN(C)CCCCNc1cc(-c2ccc3ccccc3c2)nc2ccccc12
10,> 10,CCCCc1ccc(Nc2cc(-c3ccc4ccccc4c3)nc3ccccc23)cc1
11,0.00024,CN1CCN(Cc2cc(Nc3cc(-c4ccc5ccccc5c4)nc4ccccc34)cc(CN3CCN(C)CC3)c2O)CC1
12,0.316,CN(C)CCCCNc1ccnc2ccccc12
13,0.0015,Oc1c(CN2CCCCC2)cc(Nc2cc(-c3ccc4ccccc4c3)nc3ccccc23)cc1CN1CCCCC1
14,0.0059,CN(C)CCCCCCNc1cc(-c2ccc3ccccc3c2)nc2ccccc12
15,0.11,CCN(CC)CCCC(C)Nc1ccnc2cc(Cl)ccc12 (stereo not given) [CHLOROQUINE]
